Experimental data: US6432983B1, “Benzothiophene compounds intermediates processes and methods of use” (Eli Lilly and Company, priority 1996, dated 2002)
Marks after values point to notes of the source that are not given here.

System: ovariectomized rats
Assay: ovariectomized rat model of postmenopausal hyperlipidemia (uterine weight, uterine eosinophil peroxidase, serum cholesterol)
Assay type: in vivo
Parameters: Uterine Eosinophil (Vmax): unit not given here
Settings: for Serum Cholest. % Dec: decrease versus ovariectomized controls
Excerpt: Experimental models of postmenopausal hyperlipidemia are known in the art. Germane to this invention is the ovariectomized rat model which is detailed in U.S. Pat. No. 5,464,845.
Data presented in Table 1 show comparative results among ovariectomized rats, rats treated with 17-α-ethynyl estradiol(EE2), and rats treated with certain compounds of this invention. […] This uterine response to estrogen is well recognized in the art.
Not only did the compounds of the present invention reduce serum cholesterol compared to the ovariectomized animals, but the uterine weight was increased to lesser extent than those given EE2. Compared to estrogenic compounds known in the art, the benefit of serum cholesterol reduction while lessening the effect on uterine weight is unusual and desirable.
As expressed in the data below, estrogenicity also was assessed by evaluating the response of eosinophil infiltration into the uterus.
The data presented in Table 1 reflect the response per treatment group.

[1] = ovariectomized rats, dose 1.0 mg/kg
[2] = ovariectomized rats, dose 10.0 mg/kg

Row | Compound | Uterine Weight % Inc (ovariectomized rats, dose 0.1 mg/kg, % increase versus the ovariectomized controls) | Uterine Eosinophil (Vmax) (ovariectomized rats, dose 0.1 mg/kg, Eosinophil peroxidase, Vmaximum) | Uterine Eosinophil (Vmax) (rat, in vivo, 1 mg/kg) | Uterine Weight % Inc (rat, in vivo, 1 mg/kg) | Uterine Eosinophil (Vmax) (rat, in vivo, 10 mg/kg) | Uterine Weight % Inc (rat, in vivo, 10 mg/kg) | uterine weight (in words) (compared to the ovariectomized animals or to EE2) | serum cholesterol (in words) (compared to the ovariectomized animals, EE2 orally at 0.1 mg/kg/day) | Serum Cholest. % Dec (ovariectomized rats, dose 0.1 mg/kg) | eosinophil infiltration into the uterus (in words) (stromal layer of the ovariectomized rat uteri) | Serum Cholest. % Dec [1] | Serum Cholest. % Dec [2]
1 | C#C[C@]1(O)CC[C@H]2[C@@H]3CCc4cc(O)ccc4[C@H]3CC[C@@]21C [EE2, 17-α-ethynyl estradiol, reference compound] | 125.8* % | 111.2* | – | – | – | – | substantially greater than the uterine weight of the ovariectomized animals | caused a decrease in serum cholesterol | 88.1* % | substantial and expected increase in eosinophil infiltration | – | –
2 | O=C(c1ccc(OCCCCN2CCCC2)cc1)c1c(-c2ccc(O)cc2)sc2cc(O)ccc12 [Example 14, [2-(4-Hydroxyphenyl)-6-hydroxybenzo[b]thien-3-yl][4-[4-(1-pyrrolidinyl)butyloxyl]phenyl]methanone] | – | – | 24.3* | 21.4* % | 66.5* | 62.0* % | – | – | – | – | 37.9* % | 65.7* %
3 | O=C(c1ccc(OCCCN2CCCC2)cc1)c1c(-c2ccc(O)cc2)sc2cc(O)ccc12 [Example 15, [2-(4-Hydroxyphenyl)-6-hydroxybenzo[b]thien-3-yl][4-[3-(1-pyrrolidinyl)propyloxyl]phenyl]methanone] | – | – | 51.6* | 52.6* % | 137.3* | 58.2* % | – | – | – | – | 62.7* % | 64.0* %
4 | O=C(c1ccc(OCCCCCCCCN2CCCC2)cc1)c1c(-c2ccc(O)cc2)sc2cc(O)ccc12 [Preparation C, [2-(4-Hydroxyphenyl)-6-hydroxybenzo[b]thien-3-yl][4-[8-(1-pyrrolidinyl)octyloxyl]phenyl]methanone] | – | – | 4.2 | 18.3* % | 40.3* | 69.3* % | – | – | – | – | 31.3* % | 72.8* %

Continued, in another order:

Row | Uterine Weight % Inc (ovariectomized rats, dose 0.1 mg/kg, % increase versus the ovariectomized controls) | Uterine Eosinophil (Vmax) (ovariectomized rats, dose 0.1 mg/kg, Eosinophil peroxidase, Vmaximum) | Uterine Eosinophil (Vmax) (rat, in vivo, 1 mg/kg) | Uterine Weight % Inc (rat, in vivo, 1 mg/kg) | Uterine Eosinophil (Vmax) (rat, in vivo, 10 mg/kg) | Uterine Weight % Inc (rat, in vivo, 10 mg/kg) | Compound | uterine weight (in words) (compared to the ovariectomized animals or to EE2) | serum cholesterol (in words) (compared to the ovariectomized animals, EE2 orally at 0.1 mg/kg/day) | Serum Cholest. % Dec (ovariectomized rats, dose 0.1 mg/kg) | eosinophil infiltration into the uterus (in words) (stromal layer of the ovariectomized rat uteri) | Serum Cholest. % Dec [1] | Serum Cholest. % Dec [2]
5 | – | – | 5.9 | 9.3% | 59.2* | 64.0* % | O=C(c1ccc(OCCCCCCCN2CCCC2)cc1)c1c(-c2ccc(O)cc2)sc2cc(O)ccc12 [Example 11, [2-(4-Hydroxyphenyl)-6-hydroxybenzo[b]thien-3-yl][4-[7-(1-pyrrolidinyl)heptyloxyl]phenyl]methanone] | – | – | – | – | 32.4* % | 60.5* %
6 | – | – | 2.6 | −2.6% | 17.2* | 47.8* % | O=C(c1ccc(OCCCCCCN2CCCC2)cc1)c1c(-c2ccc(O)cc2)sc2cc(O)ccc12 [Example 12, [2-(4-Hydroxyphenyl)-6-hydroxybenzo[b]thien-3-yl][4-[6-(1-pyrrolidinyl)hexyloxyl]phenyl]methanone] | – | – | – | – | 34.2* % | 74.0* %
7 | – | – | 5.8 | 10.1% | 37.8* | 39.2* % | O=C(c1ccc(OCCCCCN2CCCC2)cc1)c1c(-c2ccc(O)cc2)sc2cc(O)ccc12 [Example 13, [2-(4-Hydroxyphenyl)-6-hydroxybenzo[b]thien-3-yl][4-[5-(1-pyrrolidinyl)pentyloxyl]phenyl]methanone] | – | – | – | – | 36.4* % | 52.9* %
